The record followed here is US20080234263A1, “Quinazoline Derivatives” (priority 2003, published 2008).

In one assay the target is T1, EGFR tyrosine kinase (Homo sapiens, UniProt P00533).
T1 construct: Recombinant intracellular fragments of EGFR, erbB2 and erbB4; made in house; host or cells: baculovirus/Sf21 insect cells (cleared lysate used)
As to the kind of experiment: Protein tyrosine kinase phosphorylation assay, Test (a). It is filed as biochemical. The conditions noted are these: recombinant intracellular fragment of EGFR, ATP at Km concentration; read-out: IC50 (nM) Test (a) (Inhibition of EGFR tyrosine kinase protein phosphorylation). The method, then:
Recombinant intracellular fragments of EGFR, erbB2 and erbB4 (accession numbers X00588, X03363 and L07868 respectively) were cloned and expressed in the baculovirus/Sf21 system. Lysates were prepared from these cells by treatment with ice-cold lysis buffer (20 mM N-2-hydroxyethylpiperizine-N′-2-ethanesulfonic acid (HEPES) pH7.5, 150 mM NaCl, 10% glycerol, 1% Triton X-100, 1.5 mM MgCl2, 1 mM ethylene glycol-bis(β-aminoethyl ether) N′,N′,N′,N′-tetraacetic acid (EGTA), plus protease inhibitors and then cleared by centrifugation.
Specifically, Maxisorb™ 96-well immunoplates were coated with synthetic peptide (0.2 μg of peptide in a 100 μl phosphate buffered saline (PBS) solution and incubated at 4° C. overnight).
The immobilised phospho-peptide product of the reaction was detected by immunological methods. Firstly, plates were incubated for 90 minutes at room temperature with anti-phosphotyrosine primary antibodies that were raised in the mouse (4G10 from Upstate Biotechnology). Following extensive washing, plates were treated with Horseradish Peroxidase (HRP) conjugated sheep anti-mouse secondary antibody (NXA931 from Amersham) for 60 minutes at room temperature.
Kinase inhibition for a given compound was expressed as an IC50 value. […] The range of phosphorylation was calculated from the positive (vehicle plus ATP) and negative (vehicle minus ATP) control values.

Assay [1] deals with KB cells (human naso-pharangeal carcinoma cells). Briefly: EGFR driven KB cell proliferation assay, Test (b). It is filed as cell-based. The conditions noted are these: 96 h, EGF 1 ng/ml, incubation for 4 days, MTT. As to the method: This assay measures the ability of a test compound to inhibit the proliferation of KB cells (human naso-pharangeal carcinoma obtained from the American Type Culture Collection (ATCC).
Following adhesion to the plate, the cells are treated with or without EGF (final concentration of 1 ng/ml) and with or without compound at a range of concentrations in dimethylsulfoxide (DMSO) (0.1% final) before incubation for 4 days. Following the incubation period, cell numbers were determined by addition of 50 μl of 3-(4,5-Dimethylthiazol-2-yl)-2,5-diphenyltetrazolium bromide ([…]) (stock 5 mg/ml) for 2 hours. MTT solution was then tipped off, the plate gently tapped dry and the cells dissolved upon the addition of 100 μl of DMSO.
Absorbance of the solubilised cells was read at 540 nm using a Molecular Devices ThermoMax microplate reader. Inhibition of proliferation was expressed as an IC50 value. […] The range of proliferation was calculated from the positive (vehicle plus EGF) and negative (vehicle minus EGF) control values.

T1 sequence (P00533 669-1210 limits assumed): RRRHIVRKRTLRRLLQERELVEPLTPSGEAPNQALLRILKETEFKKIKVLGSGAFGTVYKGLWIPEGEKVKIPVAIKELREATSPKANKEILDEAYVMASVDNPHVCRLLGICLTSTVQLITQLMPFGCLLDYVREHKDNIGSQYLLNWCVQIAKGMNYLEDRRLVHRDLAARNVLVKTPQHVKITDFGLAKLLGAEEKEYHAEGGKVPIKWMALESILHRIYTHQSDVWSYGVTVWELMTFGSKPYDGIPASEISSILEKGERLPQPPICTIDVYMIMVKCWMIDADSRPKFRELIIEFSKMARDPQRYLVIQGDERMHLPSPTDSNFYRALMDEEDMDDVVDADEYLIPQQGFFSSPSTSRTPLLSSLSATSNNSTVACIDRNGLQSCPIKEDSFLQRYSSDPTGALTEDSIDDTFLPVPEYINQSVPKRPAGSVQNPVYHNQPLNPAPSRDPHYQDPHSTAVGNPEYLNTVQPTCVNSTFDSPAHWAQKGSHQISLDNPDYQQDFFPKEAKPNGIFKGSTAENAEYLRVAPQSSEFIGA

The term IC50 denotes the point on the concentration scale where inhibition reaches its midpoint. In the case of `COCCN1CCN(Cc2cc3c(Nc4cccc(Cl)c4F)ncnc3cc2OC)C(C(N)=O)C1` (stereo not drawn) [Example 37, 1-({4-[(3-Chloro-2-fluorophenyl)amino]-7-methoxyquinazolin-6-yl}methyl)-4-(2-methoxyethyl)piperazine-2-carboxamide], the IC50 turned out to be 67 nM on EGFR tyrosine kinase and 160 nM in assay [1].

As for `COc1cc2ncnc(Nc3cccc(Cl)c3F)c2cc1CN1CSC[C@H]1C(N)=O` [Example 24, (4R)-3-({4-[(3-Chloro-2-fluorophenyl)amino]-7-methoxyquinazolin-6-yl}methyl)-1,3-thiazolidine-4-carboxamide], the IC50 turned out to be 20 nM at EGFR tyrosine kinase and 50 nM in assay [1].

With `COc1cc2ncnc(Nc3ccc(F)c(Cl)c3)c2cc1CN1CCC[C@@H]1C(=O)NCC#N` [Example 20, 1-({4-[(3-Chloro-4-fluorophenyl)amino]-7-methoxyquinazolin-6-yl}methyl)-N-(cyanomethyl)-D-prolinamide], the figures for the 50% inhibitory concentration (IC50) (at EGFR tyrosine kinase; in assay [1]) were 64 nM and 143 nM, respectively.
